Experimental data taken from patent US20260234140A1, “PYRIDOPYRIMIDINE DERIVATIVE AND USE THEREOF” (SUNSHINE LAKE PHARMA CO., LTD., priority 2023, published 2026).

Columns and labels:
PD1/PD-L1 pathway = test: PD1/PD-L1 Blockade Bioassay, inhibition of the PD1/PD-L1 pathway at the cellular level (luciferase reporter, PD-1 Jukat T cells co-cultured with PD-L1 aAPC/CHO-K1 cells); assay type: cell-based; settings: T-cell; for EC50: PD-1 Jukat T cells + PD-L1 aAPC/CHO-K1 cells, 6 h co-culture, ONE-Glo luciferase readout; for Emax: maximum % Activity relative to atezolizumab (set to 100%)
Method: Experiment 1: Detecting the Inhibitory Activity of Compounds on the PD1/PD-L1 Pathway at the Cellular Level Using the PD1/PD-L1 Blockade Bioassay Method
PD-1 Jukat T cells were revived and cultured with 1640 medium containing 100 μg/mL Hygromycin B, […] Puromycin, 10% FBS and 1% dual antibody; PD-L1 aAPC/CHO-K1 cells were revived and cultured with F12K medium containing 100 μg/mL Hygromycin B, 200 μg/mL G418, 10% FBS and 1% dual antibody.
The revived cells need to be passaged 2-3 times. When the cells enter the exponential growth phase with good growth status, the PD-L1 aAPC/CHO-K1 was digested with trypsin, and the cells were resuspended in F12K containing 5% FBS and adjusted to a density of 5×10^5 cells/mL. 20 μl/well were plated in a 384-well plate (10,000 cells/well) and incubated in an incubator overnight for 16-20 h.
a Preparation of compound stock solution: Dissolve the compound to be tested in DMSO to prepare a 20 mM stock solution.
b Compound gradient dilution: dilute the compound in 1640 medium containing 5% FBS without antibiotics or phenol red, and make 3-fold gradient dilutions to prepare 10 concentration gradients (2×).
c Adding drugs: Take out the cell culture plate, discard the supernatant, add 20 μl/well of the prepared compound, and incubate in the incubator for 1.5 h.
PD-1 Jukat T cells were collected, washed once with PBS, and resuspended in 1640 medium containing 5% FBS without antibiotics or phenol red. The density was adjusted to 1×10^6 cells/mL. 20 μl PD-1 Jukat T cells (20,000 cells/well) were added to each well and incubated in the incubator for 6 h.
ONE-Glo™ Luciferase Assay reagent was thawed to room temperature in advance and then added to a 384-well plate at 40 µl/well. Incubate in the dark for 15 minutes and read the […] signal on a plate reader.
[formula] • Among them, % Activity: % Activity • RLU: Resulting Luminescence unit • RLUvehicle: Average RLU value of negative control wells on each plate • RLUpositive: Average RLU value of positive control wells on each plate • Vehicle control: DMSO (0.1%) corresponding to the test value was used as negative control (its % Activity was 0%); • Positive control: The highest detection value at the atezolizumab administration concentration was used as the positive control (its % Activity was 100%). • (2) EC50 value calculation method: The EC50 value was obtained by the nonlinear fitting formula of Graph Pad Prism 8.0 software. The calculation formula is as follows:
Y=Bottom+(Top−Bottom)/(1+10^((Log EC50−X)×HillSlope)) • X: log of activator concentration (logarithm of compound concentration); Y: % Activity • (3) Emax definition: The maximum % Activity value corresponding to the maximum activation value of the compound relative to atezolizumab (the activation value is set to 100%).

[1] = Pharmacokinetics experiment in SD rats; assay type: in vivo; settings: male SD rats; for AUC(0-t) / Cmax / half-life / clearance / Vd: rat, plasma; for Vd: read-out: Vss
Method: Experiment 2: Pharmacokinetics Experiment
1) Preparation of the compound solutions of Example 1 and Example 17: The test compound was prepared into a solution using 10% dimethyl sulfoxide, 10% Kolliphor HS15 and 80% physiological saline; Preparation of the compound solution of Example 11: The compound to be tested is prepared into a solution with 5% dimethyl sulfoxide, 5% Kolliphor HS15 and 90% saline for oral administration or intravenous injection.
2) Male SD rats weighing 250-345 g were randomly divided into two groups. One group was intravenously injected with the test compound at a dose of 1.0 mg/kg, and the other group was orally administered with the test compound at a dose of 5.0 mg/kg. Blood was collected at 0.083, 0.25, 0.5, 1, 2, 5, 7 and 24 hours after administration.
3) A standard curve of an appropriate range was established according to the sample concentration, and the concentration of the test compound in the plasma sample was determined in the MRM mode using an AB SCIEX Q TRAP 4000 LC-MS/MS. The pharmacokinetic parameters were calculated using the non-compartmental model method using WinNonLin 6.3 software.

Row | SMILES | EC50 (PD1/PD-L1 pathway) | Emax (PD1/PD-L1 pathway) | F ([1]; ig (oral), 5 mg/kg) | AUC(0-t) ([1]; ig (oral), 5 mg/kg) | Cmax ([1]; ig (oral), 5 mg/kg) | half-life ([1]; ig (oral), 5 mg/kg) | AUC(0-t) ([1]; iv, 1 mg/kg) | Cmax ([1]; iv, 1 mg/kg) | clearance ([1]; iv, 1 mg/kg) | half-life ([1]; iv, 1 mg/kg) | Vd ([1]; iv, 1 mg/kg)
1 | COc1nc(-c2cccc(-c3cccc(Nc4nc(C(F)F)nc5cc(CN6CC[C@@H](O)C6)cnc45)c3C)c2Cl)ccc1CN(C)[C@H]1CC[C@H](C(=O)O)CC1 [Example 1, (1r,4r)-4-(((6-(2-chloro-3′-((2-(difluoromethyl)-7-(((R)-3-hydroxypyrrolidin-1-yl)methyl)pyrido[3,2-d]pyrimidin-4-yl)amino)-2′-methyl-[1,1′-biphenyl]-3-yl)-2-methoxypyridin-3-yl)methyl)(methyl)amino)cyclohexane-1-carboxylic acid] | 44 nM | 98.2% | 32% | 12300 ng·h/mL | 935 ng/mL | 4.9 h | 7710 ng·h/mL | 877 ng/mL | 2.1 mL/min/kg | 5.4 h | 0.82 L/kg
2 | COc1nc(-c2cccc(-c3cccc(Nc4nc(C(F)F)nc5cc(CN6CC[C@@H](O)C6)cnc45)c3C)c2Cl)ccc1CN(C)C[C@H]1CC[C@H](C(=O)O)CC1 [Example 17, (1r,4r)-4-((((6-(2-chloro-3′-((2-(difluoromethyl)-7-(((R)-3-hydroxypyrrolidin-1-yl)methyl)pyrido[3,2-d]pyrimidin-4-yl)amino)-2′-methyl-[1,1′-biphenyl]-3-yl)-2-methoxypyridin-3-yl)methyl)(methyl)amino)methyl)cyclohexane-1-carboxylic acid] | 109 nM | 94.1% | 55% | 27000 ng·h/mL | 1980 ng/mL | – | 9760 ng·h/mL | 675 ng/mL | 1.6 mL/min/kg | 7.5 h | 0.95 L/kg
3 | COc1nc(-c2cccc(-c3cccc(Nc4nc(C(F)F)nc5cc(CN6CC[C@@H](O)C6)cnc45)c3C)c2Cl)ccc1CN1CCC(C(=O)O)CC1 [Example 40, (R)-1-((6-(2-chloro-3′-((2-(difluoromethyl)-7-((3-hydroxypyrrolidin-1-yl)methyl)pyrido[3,2-d]pyrimidin-4-yl)amino)-2′-methyl-[1,1′-biphenyl]-3-yl)-2-methoxypyridin-3-yl)methyl)piperidine-4-carboxylic acid] | 57.7 nM | 121% | 23% | 15100 ng·h/mL | 1260 ng/mL | 4.1 h | 12900 ng·h/mL | 1870 ng/mL | 1.3 mL/min/kg | 4.5 h | 0.43 L/kg
4 | [2H]C([2H])([2H])N(Cc1ncc(-c2cccc(-c3cccc(Nc4nc(C(F)F)nc5cc(CN6CC[C@@H](O)C6)cnc45)c3C)c2Cl)cc1OC)C[C@H]1CC[C@H](C(=O)O)CC1 [Example 38, (1r,4r)-4-((((5-(2-chloro-3′-((2-(difluoromethyl)-7-(((R)-3-hydroxypyrrolidin-1-yl)methyl)pyrido[3,2-d]pyrimidin-4-yl)amino)-2′-methyl-[1,1′-biphenyl]-3-yl)-3-methoxypyridin-2-yl)methyl)(methyl-d3)amino)methyl)cyclohexane-1-carboxylic acid] | – | – | 57.8% | 25900 ng·h/mL | 1850 ng/mL | 6.1 h | 8890 ng·h/mL | 621 ng/mL | 1.7 mL/min/kg | 6.6 h | 0.91 L/kg
5 | COc1nc(-c2cccc(-c3cccc(Nc4nc(C(F)F)nc5cc(CN6CC[C@@H](O)C6)cnc45)c3C)c2Cl)cnc1CN(C)[C@H]1CC[C@H](C(=O)O)CC1 [Example 11, (1r,4r)-4-(((5-(2-chloro-3′-((2-(difluoromethyl)-7-(((R)-3-hydroxypyrrolidin-1-yl)methyl)pyrido[3,2-d]pyrimidin-4-yl)amino)-2′-methyl-[1,1′-biphenyl]-3-yl)-3-methoxypyrazin-2-yl)methyl)(methyl)amino)cyclohexane-1-carboxylic acid] | 20.4 nM | 98.5% | 52.9% | 16700 ng·h/mL | 1630 ng/mL | 4.3 h | 6370 ng·h/mL | 1100 ng/mL | 2.6 mL/min/kg | 3.9 h | 0.75 L/kg
